Reference: US9687845B2, “Self-loading microfluidic device and methods of use” (Wisconsin Alumni Research Foundation, priority 2011, dated 2017)
Counter-ions that a name gives are not always drawn.

Assays:
[1] = system: A. baumannii; assay: Growth in sugars, microfluidic device (phenol red colour change); as to Growth, Device: key: + indicates growth; − indicates no growth; assay type: cell-based; details: for Growth, Device: A. baumannii, sugar 1% (w/v), LB with 0.05% phenol red pH 8.2
Experimental: (§1) Self-loading microfluidic devices were prepared as described above. Reaction wells were filled with different sugar solutions including (1) cellbiose, (2) glycerol, (3) lactose, (4) mannitol, (5) mannose, (6) raffinose, (7) sucrose, (8) trehalose, (9) xylose, and (10) control (no sugar) (FIG. 28). The final concentration of the sugar in each chamber was 1% (w/v). After loading the sugar solutions, the liquid was evaporated as described above. The devices were then assembled and degassed by vacuum.
(§2) Cultures of A. baumannii-1, A. baumannii-2, K. pneumoniea-1, K. pneumoniea-2, S. aureus-1, S. aureus-2, E. coli (UT189), E. faecalis-1, E. faecalis-2, V. cholerae-1, and (11) V. cholerae-2 were grown for 15 hours in LB (pH 7.0). The cultures were then diluted at a ratio of 1:50 in LB containing 0.05% (w/v) phenol red (pH8.2) and added to individual devices using degas-driven flow. Growth of bacteria results in a pH change of the LB that causes a color change from red (illustrated in FIGS. 29 and 30 as filled chambers) to yellow (illustrated in FIGS. 29 and 30 as hatched chambers).

[2] = system: E. coli (UT189); assay: as above; assay type: cell-based; details: for Growth, Device: E. coli (UT189), sugar 1% (w/v), LB with 0.05% phenol red pH 8.2; for growth in device chamber: E. coli (UT189)-1
Experimental: as §1, §2

[3] = system: K. pneumoniae; assay: as above; assay type: cell-based; details: for Growth, Device: K. pneumoniae, sugar 1% (w/v), LB with 0.05% phenol red pH 8.2; for growth in device chamber: K. pneumoniea-1 and K. pneumoniea-2, by 4 hours of incubation
Experimental: as §1, §2

[4] = system: A. baumannii; assay: Growth in sugars, culture tubes; assay type: cell-based; details: for Growth, Tube: A. baumannii, culture tubes
Excerpt: (§3) Results observed in microfluidic devices are illustrated in FIGS. 29A-F and 30A-E. The predicted growth as compared to devices and culture tubes are summarized in Table 2.

[5] = system: E. coli (UT189); assay: Growth in sugars, culture tubes; assay type: cell-based
Excerpt: as §3

[6] = system: E. faecalis; assay: Growth in sugars, culture tubes; assay type: cell-based
Excerpt: as §3

[7] = system: K. pneumoniae; assay: Growth in sugars, culture tubes; assay type: cell-based
Excerpt: as §3

[8] = system: E. faecalis; details: cited from earlier work; also: key: + indicates growth; − indicates no growth
[9] = system: S. aureus; details: cited from earlier work; as to Growth, Device: key: + indicates growth; − indicates no growth; as to Growth, Predicted: key: + indicates growth; − indicates no growth
[10] = system: E. coli (UT189); details: cited from earlier work; as to Growth, Device: key: + indicates growth; − indicates no growth; as to Growth, Predicted: key: + indicates growth; − indicates no growth
[11] = system: E. faecalis; assay: Growth in sugars, microfluidic device (phenol red colour change); assay type: cell-based; details: E. faecalis-1 and E. faecalis-2; by 18 hours of incubation
Experimental: as §1, §2

[12] = system: S. aureus; assay: as above; assay type: cell-based; details: for Growth, Device: S. aureus, sugar 1% (w/v), LB with 0.05% phenol red pH 8.2
Experimental: as §1, §2

[13] = system: S. aureus; assay: Growth in sugars, culture tubes; assay type: cell-based; details: for Growth, Tube: culture tubes; as to Growth, Tube: key: + indicates growth; − indicates no growth
Excerpt: as §3

[14] = system: V. cholerae; assay: Growth in sugars, microfluidic device (phenol red colour change); assay type: cell-based; details: V. cholerae-1 and V. cholerae-2; by 4 hours of incubation
Experimental: as §1, §2

[15] = system: K. pneumoniae; assay: MIC measurement using the self-loading microfluidic device; assay type: cell-based; details: 18 h at 35° C., CAMBH pH 8.2 with 1% glucose and 0.05% phenol red, dilution series 0.5-1024 μg/mL
Experimental: (§4) Minor adjustments were made to procedures mimicking the CLSI guidelines to perform MIC measurements using microfluidic devices prepared as described above. Antibiotic stock solutions (10 mg/mL in sterile deionized water) of vancomycin hydrochloride, tetracycline hydrochloride, and kanamycin monosulfate were used to prepare a 1:10 dilution series. Appropriate amounts of these dilutions were added to sterile deionized water to create a two-fold dilution series that varied from 0.5-1024 μg/mL. Antibiotic solution (2.94 μL) was added to each chamber with the lowest antibiotic concentration located closest to the inlet port and the highest antibiotic concentration located in the chamber closest to the vacuum well. After antibiotic loading, the device was placed in a laminar flow hood to evaporate the liquid. After the liquid was evaporated, the device was assembled by placing the layer of PDMS forming the channel section over the chamber layer containing the dried antibiotic such that the channels connected the chambers. The assembled device was then placed under vacuum.
(§5) The standardized culture was then diluted 1:200 in CAMBH media, pH 8.2 supplemented with 1% glucose and 0.05% phenol red to provide a colorimetric change upon growth. The device was removed from the vacuum and 20 μL of cell suspension was pipetted onto the inlet port. […] Bacterial growth changed the pH of the liquid nutrient media containing the indicator phenol red, and produced a visible color change that was used to identify the cell growth in chambers.

[16] = system: P. mirabilis (HI4320); assay: as above; assay type: cell-based; details: 18 h at 35° C., CAMBH pH 8.2 with 1% glucose and 0.05% phenol red, dilution series 0.5-1024 μg/mL
Experimental: as §4, §5

[17] = system: P. mirabilis (HI4320); assay: Off-chip MIC, broth dilution method according to CLSI protocols; assay type: cell-based; design: unit not given beside the values; details: CAMHB, 20 h at 35° C.
Experimental: (§6) Off-chip MIC assays using the broth dilution method according to CLSI protocols were performed as control experiments and to validate experimental data obtained with the microfluidic device.

[18] = system: K. pneumoniae; assay: as above; assay type: cell-based; details: CAMHB, 20 h at 35° C.
Experimental: as §6

[19] = system: kanamycin-resistant strain of E. coli MG1655; assay: Susceptibility to multiple antibiotics on a single microfluidic device using breakpoint values; assay type: cell-based; details: 18 h; vancomycin 2, 4, 8 μg/mL, tetracycline 0.5, 1, 2 μg/mL, kanamycin 1, 2, 4 μg/mL
Excerpt: In this Example, a single microfluidic device was used to simultaneously test the susceptibility of the kanamycin-resistant strain of E. coli MG1655 described above to multiple antibiotics using breakpoint values.
In clinical microbiology, a strain is classified as susceptible, intermediate, or resistant based on the relationship of the MIC of an antibiotic to specified ‘breakpoint’ values. Breakpoint values are set by organizations, such as the CLSI, and take into consideration MIC values of wild type strains, pharmacokinetic/pharmacodynamic data, and clinical outcomes. Breakpoint values are available for specific clinically relevant pairings of bacterial species and antibiotics and enable clinical decisions without knowing the exact MIC value.
Specifically, vancomycin, tetracycline, and kanamycin were added to the reaction wells of a single device. The most common breakpoints for vancomycin (susceptible <2 μg/mL, resistant >2 μg/mL), tetracycline (susceptible <1 μg/mL, intermediate=2 μg/mL, resistant >2 μg/mL), and gentamicin (susceptible <2 μg/mL, intermediate=4 μg/mL, resistant >4 μg/mL) were used. As there are no published breakpoints available for kanamycin, the breakpoint values for the structurally related aminoglycoside, gentamicin, against aerobic bacteria was used. A microfluidic device with ten chambers was prepared as described in Example 1 above. The ten chambers were divided into three chambers for each antibiotic vancomycin (2, 4, 8 μg/mL), tetracycline (0.5, 1, 2 μg/mL), and kanamycin (1, 2, 4 μg/mL) and one chamber for a control containing no antibiotic.

[20] = S. aureus-1, by 8 hours of incubation
For Growth, Device in this document: key: + indicates growth; − indicates no growth.

Row | SMILES | Growth, Device [1] | Growth, Device [2] | Growth, Device [3] | growth in device chamber [3] | Growth, Tube [4] | Growth, Tube [5] | Growth, Tube [6] | Growth, Tube [7] | Growth, Predicted [8] | Growth, Predicted [9] | Growth, Predicted [10] | growth in device chamber [2] | growth in device chamber [11] | growth in device chamber [12, 20] | Growth, Device [12] | Growth, Tube [13] | further results
1 | OC[C@H]1O[C@H](OC[C@H]2O[C@H](O[C@]3(CO)O[C@H](CO)[C@@H](O)[C@@H]3O)[C@H](O)[C@@H](O)[C@@H]2O)[C@H](O)[C@@H](O)[C@H]1O [Raffinose, raffinose] | − | − | + | grew | − | − | − | + | − | − | − |  |  |  |  |  | 
2 | OC[C@H]1O[C@@H](O[C@H]2[C@H](O)[C@@H](O)C(O)O[C@@H]2CO)[C@H](O)[C@@H](O)[C@H]1O (stereo partly shown) [Lactose, lactose] |  | + | − |  |  | + | + | − | + | + | + | grew | grew | growth was not observed | − | + | growth in device chamber ([12]; S. aureus-2, by 18 hours of incubation): growth was not observed
3 | OC[C@H]1O[C@@](CO)(O[C@H]2O[C@H](CO)[C@@H](O)[C@H](O)[C@H]2O)[C@@H](O)[C@@H]1O [Sucrose, sucrose] |  | − | + | grew |  | − | + | + | + | + | − |  | grew | grew | + | + | growth in device chamber [14]: grew
4 | OC[C@@H](O)[C@@H](O)[C@H](O)[C@H](O)CO [Mannitol, mannitol] |  | + | + | grew |  | + | + | + | + | + | + | grew | grew | grew | + | + | 
5 | OCC(O)CO [Glycerol, glycerol] | − | − | + | grew | − | − | + | + | + | + | + |  | grew | grew | + | − | growth in culture tubes [13]: no growth was observed
6 | O=C[C@H](O)[C@@H](O)[C@H](O)CO [Xylose, xylose] | + | − | − |  | − | + | − | + | − | − | + | grew |  |  |  |  | growth in device chamber ([1]; A. baumannii-1 and A. baumannii-2, by 8 hours of incubation): grew; growth in culture tubes ([4]; A. baumannii-1 and A. baumannii-2): did not grow
7 | OC[C@H]1O[C@H](O[C@H]2O[C@H](CO)[C@@H](O)[C@H](O)[C@H]2O)[C@H](O)[C@@H](O)[C@@H]1O [Trehalose, trehalose] |  | − | + | grew |  | + | + | + | + | + | + |  | grew | grew | + | + | growth in device chamber [14]: grew
8 | CN[C@H](CC(C)C)C(=O)N[C@H]1C(=O)N[C@@H](CC(N)=O)C(=O)N[C@H]2C(=O)N[C@H]3C(=O)N[C@H](C(=O)N[C@H](C(=O)O)c4cc(O)cc(O)c4-c4cc3ccc4O)[C@H](O)c3ccc(c(Cl)c3)Oc3cc2cc(c3O[C@@H]2O[C@H](CO)[C@@H](O)[C@H](O)[C@H]2O[C@H]2C[C@](C)(N)[C@H](O)[C@H](C)O2)Oc2ccc(cc2Cl)[C@H]1O [vancomycin, vancomycin hydrochloride] |  |  |  |  |  |  |  |  |  |  |  |  |  |  |  |  | MIC, Device [15]: >1024; MIC, Device [16]: >1024; MIC, Broth [17]: >1024; MIC, Broth [18]: >1024; effect on growth of the strain [19]: did not have any effect
9 | OC[C@H]1O[C@@H](O[C@H]2[C@H](O)[C@@H](O)[C@@H](O)O[C@@H]2CO)[C@H](O)[C@@H](O)[C@@H]1O [Cellbiose, cellbiose] | − | − | − |  | − | − | + | + | + | − | − |  | grew |  |  |  | 
